# According to US20190134120A1, “METHODS FOR THE TREATMENT OF BLADDER CANCER” (Viralytics Limited, priority 2013, published 2019):
# Columns and labels:
# T24 cells = experiment: Mitomycin C IC50, T24 cells; type: cell-based, Human; details: 1x fold IC50 treatment concentration
# 5637 cells = experiment: Mitomycin C IC50, 5637 cells; type: cell-based, Human; details: 1x fold IC50 treatment concentration
# KU19-19 cells = experiment: Mitomycin C IC50, KU19-19 cells; type: cell-based, Human; details: 1x fold IC50 treatment concentration
# ICAM-1 [1] = experiment: QPCR for ICAM-1 expression after Mitomycin C; type: cell-based, Human; details: 5637 cancer cell line exposed to Mitomycin C
# Description: (§1) FIGS. 4A-B: QPCR for ICAM-1/DAF expression. FIG. 4a) On 5637 & T24 cancer cell lines 24 hrs after irradiation (Gy 4-10). FIG. 4b) On 5637 cancer cell line exposed to Mitomycin C.
# (§2) Exposure to the chemotherapy agent Mitomycin C, up-regulates both ICAM-1 and DAF at the RNA level (FIG. 4b). To mimic patient exposure to Mitomycin C T24, RU19-19 and 5637 cells were pulsed with drug for 1, 3, 7, 24 hrs and ICAM-1 and DAF expression was measured by FACS analysis at 24 hrs.
# DAF [2] = experiment: QPCR for DAF expression after Mitomycin C; type: cell-based, Human; details: 5637 cancer cell line exposed to Mitomycin C
# Description: as §1, §2
# ICAM-1 [3] = experiment: FACS analysis of ICAM-1 (CD54) expression after Mitomycin C pulse; type: cell-based, Human
# Description: (§3) FIG. 5: FACS analysis of ICAM-1/DAF express in bladder cancer cell line pulse with Mitomycin C (×0.5 fold IC50×1, ×2) for 1, 3, 7 and 24 hrs.
# (§4) In brief, bladder cancer cells were plated at 5×10^5 cells per well (2 ml) of a 6 well tray and incubated at 37° C. for 24 hrs. The cells were treated with Mitomycin C (2× fold IC50 1× fold IC50, 0.5× fold IC50) and each concentration incubated at 37° C. for 1, 3, 7 and 24 hrs. Therefore T24 cells were treated 0.75, 0.375, 0.1876 ug/ml Mitomycin C, 5637 cells were treated with 0.68, 0.34, 0.17 ug/ml Mitomycin C and KU19-19 cells were treated with 1.4876, 0.7438, 0.3719 ug/ml. The cells were trypsinised and centrifuged for 3 mins at 1500 rpm to a pellet and re-suspended in FACS Buffer (PBS containing 10% BSA and 1% sodium azide). 100 ul of cells were added to appropriate wells in a 96-well round-bottomed plate. Antibodies were prepared at 1:10 in FACS buffer CD54 PE (BD: 347977) mIgG2b, CD55 PE (BD: 555694) mIgG2a and Isotype controls. […] Samples were read on a MACSQuant™ Analyzer (Bench top flow cytometer).
# as §2
# DAF [4] = experiment: FACS analysis of DAF (CD55) expression after Mitomycin C pulse; type: cell-based, Human; details: T24, RU19-19 and 5637 cells; short pulse (1-3 hrs); measured at 24 hrs
# Description: as §3, §4, §2
# CVA21 = CVA21 viral replication in 5637 cells on exposure to MMC (TCID50 titration on SK-MEL-28); type: cell-based; details: CVA21 MOI 3, 0.4375 or 0.875 ug/ml Mitomycin C, 24 or 48 hours
# Description: Monolayers of 5637 bladder cancer cells were plated and incubated at 37° C./5% CO2 overnight. The media was removed, and CVA21 added at an MOI of 3 in 10% FCS medium containing 0, 0.4375 or 0.875 ug/ml Mitomycin C. The cells were then incubated at 37° C. for 24 or 48 hours. The plates were then frozen at −80° C. for 1 hour or o/n and then thawed after which cell CVA21 lysate was serially diluted 1:10 in 2% DMEM. The different concentrations of lysate were then added to SK-MEL-28 cells which had previously been plated at 1×10^4 cells per well (100 μL) in a 96 well plate in 10% DMEM. The assay was then incubated at 37° C. for 5 days, after which the media was removed from the cells and 100 ul of 0.1% Glutaldehyde (Sigma) in PBS was added. After an incubation of 10 mins at RT, the Glutaldehyde solution was removed and 100 ul of 0.1% w/v Crystal Violet solution (in 20% Ethanol) was added in order to visualise the cells. Following another incubation of 10 mins at RT the excess Crystal Violet was removed with tap water. TCID50 was calculated by the Spearman & Kärber algorithm as described in Hierholzer & Killington (1996), Virology Methods Manual, p. 374.
compound,measurement,setting,value
"CO[C@@]12[C@H](COC(N)=O)C3=C(C(=O)C(C)=C(N)C3=O)N1C[C@@H]1N[C@@H]12 [Mitomycin C, mitomycin C]",IC50,T24 cells,0.375 µg/mL
same,IC50,5637 cells,0.34 µg/mL
same,IC50,KU19-19 cells,0.7438 µg/mL
same,ICAM-1 expression at the RNA level,ICAM-1 [1],up-regulates
same,DAF expression at the RNA level,DAF [2],up-regulates
same,ICAM-1 expression by FACS,"ICAM-1 [3]; T24, RU19-19 and 5637 cells, short pulse (1-3 hrs), measured at 24 hrs",strongly amplified
same,ICAM-1 amplification,"ICAM-1 [3]; one hour pulse of MMC, present from at least 4 hours after exposure",strong ICAM-1 amplification
same,DAF expression by FACS,DAF [4],strongly amplified
same,effect on CVA21 viral replication,CVA21,enhanced viral replication
